# Test system: M1-transfected COS-7 cells
# Test: Calcium recovery in M1-transfected COS-7 cells after dopamine treatment and oxotremorine-induced depolarization
# Type: cell-based, African green monkey
# Conditions: then 1 mM dopamine 4 hours, 750 μM oxotremorine depolarization
# Method: COS-7 cells, a cell line derived from African green monkey kidney, were grown in Dulbecco's Modified Eagle's Medium (D-MEM) supplemented with 10% fetal bovine serum (FBS) and containing 100 U/ml penicillin and 100 μg/ml streptomycin sulfate. Twenty four hours prior to transfection, cells were harvested with trypsin, counted, and plated on […] tissue culture plates at 5×10^6 cells/plate. Cells were transiently transfected with rat muscarinic receptor subtype 1 DNA by the DEAE-dextran method. After transfection, cells were incubated 2.5 hours in growth medium containing 80 μM chloroquine to minimize degradation of the DNA. Transfected cells were then maintained in growth medium for 48 hours, harvested with trypsin, plated to coverslips in 35 mm plates for calcium imaging, and incubated overnight.
# Dis. 6:403-411, and hereby incorporated by reference. The BB extract and stilbenes were dissolved in growth media and cells were subsequently incubated for 45 minutes at 37° C. with the treated growth medium, followed by dopamine administration for 4 hours. Following these incubations, the cells were washed three times with extract-free growth medium prior to testing.
# Calcium imaging was carried out using a Medical Systems Corp. open perfusion micro-incubator (37° C.) with temperature control that was mounted on the stage of a Nikon Eclipse TE200U microscope and illuminated with a fluorescent light source. Transfected cells were loaded with Fura-2/acetoxymethyl ester (2 μM) in loading medium (99% DMEM 1% FES) for 40 minutes at 37° C. with 5% CO2.
# Real time analyses of calcium flux prior to and following 750 μM oxotremorine-induced depolarization were then carried out using Simple PCI software (Compix, Inc. Mars, Pa.). Response and recovery were then determined for each sample. […] Recovery was determined by assessing the time (within 300 sec) for the Ca^2+ levels to return to 20% of the increase following depolarization in the cells that responded. Data was analyzed by Kruskal-Wallis one-way analysis of variance and Mann-Whitney U tests.
compound,measurement,setting,value
"Oc1cc(O)cc(/C=C/c2ccc(O)c(O)c2)c1 [piceatannol, trans-3,4,3′,5′-tetrahydroxystilbene]",protection against dopamine-induced decreases in Ca2+ Recovery,10 μg/ml pre-treatment 45 min,protected against the dopamine-induced decreases in Recovery
"Oc1ccc(/C=C/c2cc(O)cc(O)c2)cc1 [resveratrol, trans-3,5,4′-trihydroxystilbene]",protection against dopamine-induced decreases in Ca2+ Recovery,50 μg/ml pre-treatment 45 min,offered no protection
"COc1cc(O)cc(/C=C/c2ccc(O)cc2)c1 [pinostilbene, trans-3,4′-dihydroxy-5-methoxystilbene]",protection against dopamine-induced decreases in Ca2+ Recovery,50 μg/ml pre-treatment 45 min,offered no protection
"COc1ccc(/C=C/c2cc(O)cc(O)c2)cc1 [desoxyrhapontigenin, trans-3,5-dihydroxy-4′-methoxystilbene]",protection against dopamine-induced decreases in Ca2+ Recovery,25 μg/ml pre-treatment 45 min,offered no protection
"COc1ccc(/C=C/c2cc(OC)cc(OC)c2)cc1 [resveratrol trimethylether, trans-3,5,4′-trimethyletherstilbene]",protection against dopamine-induced decreases in Ca2+ Recovery,10 μg/ml pre-treatment 45 min,protected against the dopamine-induced decreases in Recovery
COc1cc(/C=C/c2ccc(O[C@@H]3O[C@H](CO)[C@@H](O)[C@H](O)[C@H]3O)cc2)cc(OC)c1 [pterostilbene glucoside],protection against dopamine-induced decreases in Ca2+ Recovery,10 μg/ml pre-treatment 45 min,protected against the dopamine-induced decreases in Recovery
